“And” between values parts separate entries of the source, which are not always exact repeats. Identical values can stand only once. Like-named read-outs stand apart in the source and are kept apart here.
Legend:
human SERT = molecular target: T1, human SERT (Homo sapiens, UniProt P31645); experiment: Binding site competition, cells stably transfected with human SERT, [3H]citalopram; conditions: for Ki / SERT Ki: [3H]citalopram, transfected cell lines; for DAT/SERT selectivity / NET/SERT selectivity: ratio of Ki
T1 construct: expressed in transfected cells
T1 sequence (P31645 whole entry): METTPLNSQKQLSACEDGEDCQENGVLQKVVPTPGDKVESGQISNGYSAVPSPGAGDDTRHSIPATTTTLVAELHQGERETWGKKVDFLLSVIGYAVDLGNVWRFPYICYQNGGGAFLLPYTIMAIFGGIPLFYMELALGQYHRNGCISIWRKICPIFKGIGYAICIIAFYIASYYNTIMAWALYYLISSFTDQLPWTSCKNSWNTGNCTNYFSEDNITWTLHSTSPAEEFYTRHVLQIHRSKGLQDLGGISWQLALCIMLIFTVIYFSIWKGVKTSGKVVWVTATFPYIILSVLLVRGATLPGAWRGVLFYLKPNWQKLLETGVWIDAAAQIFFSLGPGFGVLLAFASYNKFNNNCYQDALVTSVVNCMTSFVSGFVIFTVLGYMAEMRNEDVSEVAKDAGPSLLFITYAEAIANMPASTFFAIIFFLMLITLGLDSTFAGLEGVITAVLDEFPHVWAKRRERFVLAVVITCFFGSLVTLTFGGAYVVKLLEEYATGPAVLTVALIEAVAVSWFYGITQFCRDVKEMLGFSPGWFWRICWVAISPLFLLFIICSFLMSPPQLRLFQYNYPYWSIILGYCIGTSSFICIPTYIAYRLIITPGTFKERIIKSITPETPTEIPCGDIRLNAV

SERT = conditions: cited from earlier work
human NET = molecular target: T2, human NET (Homo sapiens, UniProt P23975); experiment: Binding site competition, cells stably transfected with human NET, [3H]nisoxetine; conditions: transfected cell lines
T2 construct: expressed in transfected cells
T2 sequence (P23975 whole entry): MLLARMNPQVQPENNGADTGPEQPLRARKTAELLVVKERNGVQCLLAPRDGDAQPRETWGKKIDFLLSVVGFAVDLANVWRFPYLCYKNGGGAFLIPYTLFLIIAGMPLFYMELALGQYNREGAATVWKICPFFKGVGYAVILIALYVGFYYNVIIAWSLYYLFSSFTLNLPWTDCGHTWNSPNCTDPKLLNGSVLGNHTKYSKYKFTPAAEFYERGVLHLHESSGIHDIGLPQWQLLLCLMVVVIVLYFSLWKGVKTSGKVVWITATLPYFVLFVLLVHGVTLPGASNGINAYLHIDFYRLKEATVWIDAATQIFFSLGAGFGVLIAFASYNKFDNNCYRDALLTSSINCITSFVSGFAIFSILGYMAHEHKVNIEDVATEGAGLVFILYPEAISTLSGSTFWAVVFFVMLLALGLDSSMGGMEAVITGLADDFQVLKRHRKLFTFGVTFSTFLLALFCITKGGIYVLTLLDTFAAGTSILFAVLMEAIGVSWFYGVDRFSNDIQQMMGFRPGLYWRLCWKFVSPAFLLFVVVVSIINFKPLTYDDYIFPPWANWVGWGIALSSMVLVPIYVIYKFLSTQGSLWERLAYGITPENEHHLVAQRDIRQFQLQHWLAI

human DAT = molecular target: T3, human DAT (Homo sapiens, UniProt Q01959); experiment: Binding site competition, cells stably transfected with human DAT, [3H]WIN 35,428; conditions: [3H]WIN 35428, transfected cell lines
T3 construct: expressed in transfected cells
T3 sequence (Q01959 whole entry): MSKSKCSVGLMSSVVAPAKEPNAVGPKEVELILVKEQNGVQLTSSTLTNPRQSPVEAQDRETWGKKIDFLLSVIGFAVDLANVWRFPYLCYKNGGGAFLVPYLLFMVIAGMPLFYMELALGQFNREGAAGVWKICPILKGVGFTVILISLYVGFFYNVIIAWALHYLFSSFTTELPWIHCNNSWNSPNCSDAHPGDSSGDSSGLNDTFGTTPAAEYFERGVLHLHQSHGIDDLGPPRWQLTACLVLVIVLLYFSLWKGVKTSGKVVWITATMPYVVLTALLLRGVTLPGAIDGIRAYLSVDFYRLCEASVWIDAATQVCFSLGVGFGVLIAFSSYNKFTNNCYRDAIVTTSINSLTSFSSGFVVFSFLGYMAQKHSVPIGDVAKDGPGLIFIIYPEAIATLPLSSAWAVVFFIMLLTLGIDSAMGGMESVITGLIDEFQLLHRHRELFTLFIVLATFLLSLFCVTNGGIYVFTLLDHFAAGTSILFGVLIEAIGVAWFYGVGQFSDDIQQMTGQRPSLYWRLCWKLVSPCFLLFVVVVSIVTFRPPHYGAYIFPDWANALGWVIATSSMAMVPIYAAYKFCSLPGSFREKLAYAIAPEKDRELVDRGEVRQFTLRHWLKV

COC(=O)[C@@H]1C2CCC(C[C@@H]1c1ccc(/C=C/I)cc1)N2 (some centres unmarked) [EINT]
Ki (human SERT): 1.15 nM
Selectivity for the SERT over the DAT (SERT): 500 times
IC50 (SERT; vs [3H]WIN 35428 (so in the source)): 0.69 nM
Ki (human NET; read-out: NET Ki): 32 nM
Ki (human DAT): 1.88 nM

COC(=O)C1C2CCC(CC1c1ccc(CCF)c(Br)c1)N2 (stereo not drawn) [FEBrNT, 2β-carbomethoxy-3β-(4-(2-fluoroethyl)-3-bromophenyl)nortropane]
Ki (human SERT): 0.22 nM and 0.12 to 0.56 nM
SERT Ki (human SERT): subnanomolar
DAT/SERT selectivity (human SERT): 100
NET/SERT selectivity (human SERT): 573
Ki (human NET; NET Ki): 126 nM
Ki (human DAT): 23.2 nM and 23 nM

COC(=O)C1C2CCC(CC1c1ccc(CCF)c(Cl)c1)N2 (stereo not drawn) [FEClNT, 2β-carbomethoxy-3β-(4-(2-fluoroethyl)-3-chlorophenyl)nortropane]
Ki (human SERT): 0.56 nM and 0.12 to 0.56 nM
SERT Ki (human SERT): subnanomolar
DAT/SERT selectivity (human SERT): 48
NET/SERT selectivity (human SERT): 209
Ki (human NET; NET Ki): 117 nM
Ki (human DAT): 27 nM

COC(=O)C1C2CCC(CC1c1ccc(CCF)c(I)c1)N2 (stereo not drawn) [FEINT, 2β-carbomethoxy-3β-(4-(2-fluoroethyl)-3-iodophenyl)nortropane]
Ki (human SERT): 0.1 nM and 0.12 to 0.56 nM
SERT Ki (human SERT): subnanomolar
DAT/SERT selectivity (human SERT): 424 and 283
NET/SERT selectivity (human SERT): 649
Ki (human NET; NET Ki): 64.9 nM and 65 nM
Ki (human DAT): 42.4 nM and 42 nM

COC(=O)C1C2CCC(CC1c1ccc(CCCF)c(I)c1)N2 (centres unmarked) [FPINT]
SERT Ki (human SERT): subnanomolar

COC(=O)[C@H]1[C@@H](c2ccc(C(C)=CF)cc2)C[C@@H]2CC[C@H]1N2 [IPPNT]
Ki (human SERT): 0.08 nM
SERT Ki (human SERT): subnanomolar
DAT/SERT selectivity (human SERT): 37
Ki (human NET; read-out: NET Ki): 11.8 nM
Ki (human DAT): 2.93 nM

COC(=O)C1C2CCC(CC1c1ccc(/C=C\CF)cc1)N2 (stereo not drawn) [Ligand Z-3-FPNT, 2β-carbomethoxy-3β-(4′(Z-3-fluoropropenyl)phenyl)-nortropane]
Ki (human SERT): 0.1 nM
DAT/SERT selectivity (human SERT): 116
Ki (human DAT): 11.6 nM

— patent publication US6843979B2, “4-haloethenylphenyl tropane:serotonin transporter imaging agents” (Emory University, priority 1999, dated 2005)
